Test results as given in US20260378560A1, “APPROACHES TO DESIGNING AND PERFORMING COMPRESSED BIOLOGICAL EXPERIMENTS AND SYSTEMS FOR IMPLEMENTING THE SAME” (EXVIVO LABS INC., priority 2023, published 2026).

How the values were obtained:
[1] = test system: co-culture of three cancer cell lines; test: Cell viability (CellTiter Glo) of compressed target pools, co-cultures of three cell lines (Target Compression); type: cell-based
Description: (§1) Total cell viability was measured for each cancer cell line using an Adenosine TriPhosphate (“ATP”) assay, and more specifically an ATP-based luminescence assay (i.e., CellTiter Glo). Each cancer drug was screened at multiple concentrations ranging from one nanomolar (nM) to ten micromolar (UM) in order to generate a dose-response curve and calculate a drug response score (“DRS”) for each cancer cell line. The DRS was calculated as a continuous function of multiple parameters of the non-linear dose-response curve, including the slope at the half-maximal effective concentration (also called “EC50”) and the top and bottom asymptotes of the dose-response curve. […] After total cell viability was measured and DRS was calculated, the DRS of each cancer cell line in the pool was deconvolved for each cancer drug.
Each pool represented a co-culture of three cell lines (“Target Compression”).

REH = test: Cell viability (CellTiter Glo), library of cancer drugs, individual or sample compression with randomized (alphabetical) pools, REH; type: cell-based; details: REH; for DRS: None (measured individually); for DRS from deconvolution: Samples, 7 Pick 3 randomized (alphabetical) sample pools
Method in brief: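 Cells cultured with each drug individually at 1 nM–10 μM; viability by ATP luminescence (CellTiter Glo) to build dose-response curves and DRS. Samples read singly or pooled alphabetically (each drug in 3 of 7 pools), with pooled DRS recovered by additivity-based SUM deconvolution.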

MOLT-4 = test: Cell viability (CellTiter Glo), compressed perturbation pools with informed pool design, MAX-based deconvolution, MOLT-4; details: for DRS: MOLT-4, None (measured individually), informed pool design table; for DRS from MAX-based deconvolution: MOLT-4, Samples, 7 Pick 3 informed perturbation pools; for DRS, MOLT-4, MAX: compressed perturbation pools, informed pool design, MAX-based deconvolution;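 for DRS from MAX-based deconvolution: higher DRS means a larger drug effect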
Method in brief: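 Drugs dosed from 1 nM to 10 μM with ATP-luminescence viability, giving a DRS per drug. Pools designed by drug class, with same-class drugs in separate cohorts and clinically toxic pairs kept apart.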

CCRF-HSB2 = test: ATP-based luminescence cell viability (CellTiter Glo), drug response score, CCRF-HSB2; details: CCRF-HSB2, screened individually (Compress: None)
[2] = test system: pooled samples of three cancer cell lines; test: Cell viability (CellTiter Glo) of compressed pooled samples of three individually cultured cell lines (Sample Compression); type: cell-based
Description: as §1
A benefit of the compression methodology is the ability to compress members of a library into pools for co-culture screens or compress individual cell cultures into pooled samples for measurement. For example, leukemia cell lines can interact in co-cultures through their immune receptors, which may result in cell activation, cytokine production, and other effects that may impact drug sensitivity and resistance. […] Instead of creating compressed target cells in pooled co-cultures, compression was instead used to enable individual cultures of each cell line, with pooled measurements to reduce reagents and instrument time. With individual cultures and sample compression, it was possible to accurately deconvolute DRS for each drug on each cell line, as shown in Table IV.

[3] = 5 Pick 3, Pool 1 (REH, SUP-B15, CCRF-CFM)
[4] = 5 Pick 3, Pool 2 (SUP-B15, CCRF-HSB2, MOLT-4)
[5] = 5 Pick 3, Pool 3 (SUP-B15, CCRF-CFM, CCRF-HSB2)
[6] = 5 Pick 3, Pool 4 (REH, CCRF-CFM, MOLT-4)
[7] = 5 Pick 3, Pool 5 (REH, CCRF-HSB2, MOLT-4)
[8] = 6 Pick 3, Pool 1 (REH, CCRF-CFM, MOLT-4)
[9] = 6 Pick 3, Pool 2 (REH, CCRF-HSB2, MOLT-4)
[10] = 6 Pick 3, Pool 3 (REH, CCRF-CFM, JURKAT)
[11] = 6 Pick 3, Pool 4 (SUP-B15, CCRF-HSB2, JURKAT)
[12] = 6 Pick 3, Pool 5 (SUP-B15, CCRF-CFM, JURKAT)
[13] = 6 Pick 3, Pool 6 (SUP-B15, CCRF-HSB2, MOLT-4)
[14] = 7 Pick 3, Pool 1 (SUP-B15, CCRF-CFM, JURKAT)
[15] = 7 Pick 3, Pool 2 (SUP-B15, CCRF-HSB2, NALM-6)
[16] = 7 Pick 3, Pool 3 (SUP-B15, CCRF-CFM, NALM-6)
[17] = 7 Pick 3, Pool 4 (REH, CCRF-HSB2, JURKAT)
[18] = 7 Pick 3, Pool 5 (REH, MOLT-4, NALM-6)
[19] = 7 Pick 3, Pool 6 (REH, MOLT-4, JURKAT)
[20] = 7 Pick 3, Pool 7 (CCRF-CFM, CCRF-HSB2, MOLT-4)

| Compound | DRS of pool [1, 3] | DRS of pool [1, 4] | DRS of pool [1, 5] | DRS of pool [1, 6] | DRS of pool [1, 7] | DRS of pool [1, 8] | DRS of pool [1, 9] | DRS of pool [1, 10] | DRS of pool [1, 11] | DRS of pool [1, 12] | DRS of pool [1, 13] | DRS of pool [1, 14] | DRS of pool [1, 15] | DRS of pool [1, 16] | DRS of pool [1, 20] | DRS (REH) | DRS from deconvolution (REH) | DRS (MOLT-4) | DRS from MAX-based deconvolution (MOLT-4) | drug response score (DRS) (CCRF-HSB2) | further results |
| --- | --- | --- | --- | --- | --- | --- | --- | --- | --- | --- | --- | --- | --- | --- | --- | --- | --- | --- | --- | --- | --- |
| N#Cc1ccnc(N2C(=O)CC[C@H]2C(=O)N(c2cncc(F)c2)[C@H](C(=O)NC2CC(F)(F)C2)c2ccccc2Cl)c1 [Ivosidenib] | 0.54 | 0.60 | 0.91 | 0.63 | 0.88 | 0.60 | 0.81 | 0.77 | 0.61 | 0.57 | 0.61 | 0.57 | 0.54 | 0.34 | 0.95 | 0.37 | 0.00 | 1.12 | 1.96 | 1.60 | DRS of pool [1, 17]: 0.98; DRS of pool [1, 18]: 0.27; DRS of pool [1, 19]: 0.51; DRS of pool [2, 3]: 0.52; DRS of pool [2, 4]: 0.55; DRS of pool [2, 5]: 0.82; DRS of pool [2, 6]: 0.51; DRS of pool [2, 7]: 0.74 |
| C=CC(=O)Nc1cc(Nc2nccc(-c3cn(C)c4ccccc34)n2)c(OC)cc1N(C)CCN(C)C [Osimertinib] | – | – | – | – | – | – | – | – | – | – | – | – | – | – | – | 5.84 | 6.12 | 0.10 | 0.00 | – | DRS, MOLT-4, MAX (MOLT-4): 0.00 |
| CC1(C)CCC(CN2CCN(c3ccc(C(=O)NS(=O)(=O)c4ccc(NCC5CCOCC5)c([N+](=O)[O-])c4)c(Oc4cnc5[nH]ccc5c4)c3)CC2)=C(c2ccc(Cl)cc2)C1 [Venetoclax] | 14.50 | 13.53 | 13.46 | 2.70 | 2.43 | 2.60 | 2.26 | 1.57 | 13.22 | 12.95 | 13.01 | 12.97 | 14.37 | 15.70 | 1.35 | 3.91 | 4.05 | 3.37 | 3.88 | 0.00 | DRS of pool [1, 17]: 1.25; DRS of pool [1, 18]: 4.62; DRS of pool [1, 19]: 2.25; DRS, MOLT-4, MAX (MOLT-4): 3.41; DRS of pool [2, 3]: 13.99; DRS of pool [2, 4]: 13.60; DRS of pool [2, 5]: 12.57; DRS of pool [2, 6]: 2.91; DRS of pool [2, 7]: 2.41 |
| COc1cc2ncnc(Nc3ccc(F)c(Cl)c3)c2cc1OCCCN1CCOCC1 [Gefitinib] | – | – | – | – | – | – | – | – | – | – | – | – | – | – | – | 5.66 | 5.59 | 0.00 | 0.00 | – | DRS, MOLT-4, MAX (MOLT-4): 0.00 |
| Cc1[nH]c2ccccc2c1CCNCc1ccc(/C=C/C(=O)NO)cc1 [Panobinostat] | 17.85 | 18.46 | 20.02 | 15.81 | 16.48 | 15.05 | 15.25 | 14.41 | 18.23 | 17.93 | 18.22 | 17.85 | 18.41 | 18.84 | 16.92 | 13.34 | 13.96 | 3.01 | 3.24 | 17.40 | DRS of pool [2, 3]: 18.56; DRS of pool [2, 4]: 19.17; DRS of pool [2, 5]: 20.34; DRS of pool [2, 6]: 14.93; DRS of pool [2, 7]: 15.87 |
| COc1c(OCCCN2CCOCC2)ccc2c1N=C(NC(=O)c1cnc(N)nc1)N1CCN=C21 [Copanlisib] | 10.53 | 6.47 | 8.68 | 13.21 | 10.79 | 12.63 | 9.99 | 9.72 | 6.40 | 6.40 | 6.47 | 6.55 | 7.58 | 10.22 | 10.65 | 12.67 | 12.51 | 0.03 | 0.03 | 6.94 | DRS of pool [1, 17]: 7.17; DRS of pool [1, 18]: 11.88; DRS of pool [1, 19]: 8.07; DRS of pool [2, 3]: 10.47; DRS of pool [2, 4]: 6.63; DRS of pool [2, 5]: 8.39; DRS of pool [2, 6]: 13.65; DRS of pool [2, 7]: 10.96 |
